Measured values published in US6960574B2, “Antagonists of RF-amide neuropeptides” (University of Florida, priority 2002, dated 2005).
Peptide text beside a SMILES is read from it. * marks the point of attachment. Dansyl = CN(C)c1cccc2c(S(=O)(=O)*)cccc12

Each compound was assayed on receptor labeled by the radioiodinated analogue of 1 (4, [125I]-YLFQPQRF-NH2); neuropeptide FF receptor (assay: Competitive radioligand binding against 4 ([125I]Y8F-amide)). Conditions: mixture-based positional scanning; difference from averaged radioligand displacement of whole library (0); about 80 a.u. = 10-fold change in Ki.

Relative Binding Index (RBI) [a.u.] | Compound
22 | C[C@@H](O)[C@H](NC(=O)[C@H](CO)NS(=O)(=O)c1cccc2c(N(C)C)cccc12)C(=O)N[C@@H](CCCNC(=N)N)C(N)=O [Dansyl-STR-amide] (Dansyl-Ser-Thr-Arg-NH2)
12 | CC(C)[C@H](NC(=O)[C@H](CO)NS(=O)(=O)c1cccc2c(N(C)C)cccc12)C(=O)N[C@@H](CCCNC(=N)N)C(N)=O [Dansyl-SVR-amide] (Dansyl-Ser-Val-Arg-NH2)
−58 | C[C@H](NC(=O)[C@@H](NS(=O)(=O)c1cccc2c(N(C)C)cccc12)[C@@H](C)O)C(=O)N[C@@H](CCCNC(=N)N)C(N)=O [Dansyl-TAR-amide] (Dansyl-Thr-Ala-Arg-NH2)
−27 | C[C@@H](O)[C@H](NS(=O)(=O)c1cccc2c(N(C)C)cccc12)C(=O)N[C@@H](CC(=O)O)C(=O)N[C@@H](CCCNC(=N)N)C(N)=O [Dansyl-TDR-amide] (Dansyl-Thr-Asp-Arg-NH2)
−3 | C[C@@H](O)[C@H](NS(=O)(=O)c1cccc2c(N(C)C)cccc12)C(=O)NCC(=O)N[C@@H](CCCNC(=N)N)C(N)=O [Dansyl-TGR-amide] (Dansyl-Thr-Gly-Arg-NH2)
−2 | CC[C@H](C)[C@H](NC(=O)[C@@H](NS(=O)(=O)c1cccc2c(N(C)C)cccc12)[C@@H](C)O)C(=O)N[C@@H](CCCNC(=N)N)C(N)=O [Dansyl-TIR-amide] (Dansyl-Thr-Ile-Arg-NH2)
−17 | CC(C)C[C@H](NC(=O)[C@@H](NS(=O)(=O)c1cccc2c(N(C)C)cccc12)[C@@H](C)O)C(=O)N[C@@H](CCCNC(=N)N)C(N)=O [Dansyl-TLR-amide] (Dansyl-Thr-Leu-Arg-NH2)
−9 | CSCC[C@H](NC(=O)[C@@H](NS(=O)(=O)c1cccc2c(N(C)C)cccc12)[C@@H](C)O)C(=O)N[C@@H](CCCNC(=N)N)C(N)=O [Dansyl-TMR-amide] (Dansyl-Thr-Met-Arg-NH2)
−7 | C[C@@H](O)[C@H](NS(=O)(=O)c1cccc2c(N(C)C)cccc12)C(=O)N[C@@H](CC(N)=O)C(=O)N[C@@H](CCCNC(=N)N)C(N)=O [Dansyl-TNR-amide] (Dansyl-Thr-Asn-Arg-NH2)
12 | C[C@@H](O)[C@H](NS(=O)(=O)c1cccc2c(N(C)C)cccc12)C(=O)N[C@@H](CO)C(=O)N[C@@H](CCCNC(=N)N)C(N)=O [Dansyl-TSR-amide] (Dansyl-Thr-Ser-Arg-NH2)
−3 | C[C@@H](O)[C@H](NC(=O)[C@@H](NS(=O)(=O)c1cccc2c(N(C)C)cccc12)[C@@H](C)O)C(=O)N[C@@H](CCCNC(=N)N)C(N)=O [Dansyl-TTR-amide] (Dansyl-Thr-Thr-Arg-NH2)
−13 | CC(C)[C@H](NC(=O)[C@@H](NS(=O)(=O)c1cccc2c(N(C)C)cccc12)[C@@H](C)O)C(=O)N[C@@H](CCCNC(=N)N)C(N)=O [Dansyl-TVR-amide] (Dansyl-Thr-Val-Arg-NH2)
−53 | CC(C)[C@H](NS(=O)(=O)c1cccc2c(N(C)C)cccc12)C(=O)N[C@@H](C)C(=O)N[C@@H](CCCNC(=N)N)C(N)=O [Dansyl-VAR-amide] (Dansyl-Val-Ala-Arg-NH2)

More lines, now with the values behind:

Compound | Relative Binding Index (RBI) [a.u.]
CN(C)c1cccc2c(S(=O)(=O)N[C@@H](CO)C(=O)N[C@@H](CCC(N)=O)C(=O)N[C@@H](CCCNC(=N)N)C(N)=O)cccc12 [Dansyl-SQR-amide] (Dansyl-Ser-Gln-Arg-NH2) | 30
CN(C)c1cccc2c(S(=O)(=O)N[C@@H](CO)C(=O)N[C@@H](CCCNC(=N)N)C(=O)N[C@@H](CCCNC(=N)N)C(N)=O)cccc12 [Dansyl-SRR-amide] (Dansyl-Ser-Arg-Arg-NH2) | 15
CN(C)c1cccc2c(S(=O)(=O)N[C@@H](CO)C(=O)N[C@@H](CO)C(=O)N[C@@H](CCCNC(=N)N)C(N)=O)cccc12 [Dansyl-SSR-amide] (Dansyl-Ser-Ser-Arg-NH2) | 37
CN(C)c1cccc2c(S(=O)(=O)N[C@@H](CO)C(=O)N[C@@H](Cc3c[nH]c4ccccc34)C(=O)N[C@@H](CCCNC(=N)N)C(N)=O)cccc12 [Dansyl-SWR-amide] (Dansyl-Ser-Trp-Arg-NH2) | 25
CN(C)c1cccc2c(S(=O)(=O)N[C@@H](CO)C(=O)N[C@@H](Cc3ccc(O)cc3)C(=O)N[C@@H](CCCNC(=N)N)C(N)=O)cccc12 [Dansyl-SYR-amide] (Dansyl-Ser-Tyr-Arg-NH2) | 15
C[C@@H](O)[C@H](NS(=O)(=O)c1cccc2c(N(C)C)cccc12)C(=O)N[C@@H](CCC(=O)O)C(=O)N[C@@H](CCCNC(=N)N)C(N)=O [Dansyl-TER-amide] (Dansyl-Thr-Glu-Arg-NH2) | −8
CC(O)C(NS(=O)(=O)c1cccc2c(N(C)C)cccc12)C(=O)NC(Cc1ccccc1)C(=O)NC(CCCNC(=N)N)C(N)=O (stereo not drawn) [Dansyl-TFR-amide] (Dansyl-Thr-Phe-Arg-NH2; configuration not given here) | −10
C[C@@H](O)[C@H](NS(=O)(=O)c1cccc2c(N(C)C)cccc12)C(=O)N[C@@H](Cc1c[nH]cn1)C(=O)N[C@@H](CCCNC(=N)N)C(N)=O [Dansyl-THR-amide] (Dansyl-Thr-His-Arg-NH2) | −14
C[C@@H](O)[C@H](NS(=O)(=O)c1cccc2c(N(C)C)cccc12)C(=O)N[C@@H](CCCCN)C(=O)N[C@@H](CCCNC(=N)N)C(N)=O [Dansyl-TKR-amide] (Dansyl-Thr-Lys-Arg-NH2) | −11
C[C@@H](O)[C@H](NS(=O)(=O)c1cccc2c(N(C)C)cccc12)C(=O)N1CCC[C@H]1C(=O)N[C@@H](CCCNC(=N)N)C(N)=O [Dansyl-TPR-amide] (Dansyl-Thr-Pro-Arg-NH2) | −5
C[C@@H](O)[C@H](NS(=O)(=O)c1cccc2c(N(C)C)cccc12)C(=O)N[C@@H](CCC(N)=O)C(=O)N[C@@H](CCCNC(=N)N)C(N)=O [Dansyl-TQR-amide] (Dansyl-Thr-Gln-Arg-NH2) | 5
C[C@@H](O)[C@H](NS(=O)(=O)c1cccc2c(N(C)C)cccc12)C(=O)N[C@@H](CCCNC(=N)N)C(=O)N[C@@H](CCCNC(=N)N)C(N)=O [Dansyl-TRR-amide] (Dansyl-Thr-Arg-Arg-NH2) | −10
C[C@@H](O)[C@H](NS(=O)(=O)c1cccc2c(N(C)C)cccc12)C(=O)N[C@@H](Cc1c[nH]c2ccccc12)C(=O)N[C@@H](CCCNC(=N)N)C(N)=O [Dansyl-TWR-amide] (Dansyl-Thr-Trp-Arg-NH2) | 0
C[C@@H](O)[C@H](NS(=O)(=O)c1cccc2c(N(C)C)cccc12)C(=O)N[C@@H](Cc1ccc(O)cc1)C(=O)N[C@@H](CCCNC(=N)N)C(N)=O [Dansyl-TYR-amide] (Dansyl-Thr-Tyr-Arg-NH2) | −10
CC(C)[C@H](NS(=O)(=O)c1cccc2c(N(C)C)cccc12)C(=O)N[C@@H](CC(=O)O)C(=O)N[C@@H](CCCNC(=N)N)C(N)=O [Dansyl-VDR-amide] (Dansyl-Val-Asp-Arg-NH2) | −22
CC(C)[C@H](NS(=O)(=O)c1cccc2c(N(C)C)cccc12)C(=O)N[C@@H](CCC(=O)O)C(=O)N[C@@H](CCCNC(=N)N)C(N)=O [Dansyl-VER-amide] (Dansyl-Val-Glu-Arg-NH2) | −4
CC(C)[C@H](NS(=O)(=O)c1cccc2c(N(C)C)cccc12)C(=O)N[C@@H](Cc1ccccc1)C(=O)N[C@@H](CCCNC(=N)N)C(N)=O [Dansyl-VFR-amide] (Dansyl-Val-Phe-Arg-NH2) | −6
CC(C)[C@H](NS(=O)(=O)c1cccc2c(N(C)C)cccc12)C(=O)NCC(=O)N[C@@H](CCCNC(=N)N)C(N)=O [Dansyl-VGR-amide] (Dansyl-Val-Gly-Arg-NH2) | 1
CC(C)[C@H](NS(=O)(=O)c1cccc2c(N(C)C)cccc12)C(=O)N[C@@H](Cc1cnc[nH]1)C(=O)N[C@@H](CCCNC(=N)N)C(N)=O [Dansyl-VHR-amide] (Dansyl-Val-His-Arg-NH2) | −10
CC[C@H](C)[C@H](NC(=O)[C@@H](NS(=O)(=O)c1cccc2c(N(C)C)cccc12)C(C)C)C(=O)N[C@@H](CCCNC(=N)N)C(N)=O [Dansyl-VIR-amide] (Dansyl-Val-Ile-Arg-NH2) | 2
CC(C)[C@H](NS(=O)(=O)c1cccc2c(N(C)C)cccc12)C(=O)N[C@@H](CCCCN)C(=O)N[C@@H](CCCNC(=N)N)C(N)=O [Dansyl-VKR-amide] (Dansyl-Val-Lys-Arg-NH2) | −7
CC(C)C[C@H](NC(=O)[C@@H](NS(=O)(=O)c1cccc2c(N(C)C)cccc12)C(C)C)C(=O)N[C@@H](CCCNC(=N)N)C(N)=O [Dansyl-VLR-amide] (Dansyl-Val-Leu-Arg-NH2) | −13
CSCC[C@H](NC(=O)[C@@H](NS(=O)(=O)c1cccc2c(N(C)C)cccc12)C(C)C)C(=O)N[C@@H](CCCNC(=N)N)C(N)=O [Dansyl-VMR-amide] (Dansyl-Val-Met-Arg-NH2) | −4
CC(C)[C@H](NS(=O)(=O)c1cccc2c(N(C)C)cccc12)C(=O)N[C@@H](CC(N)=O)C(=O)N[C@@H](CCCNC(=N)N)C(N)=O [Dansyl-VNR-amide] (Dansyl-Val-Asn-Arg-NH2) | −3
CC(C)[C@H](NS(=O)(=O)c1cccc2c(N(C)C)cccc12)C(=O)N1CCC[C@H]1C(=O)N[C@@H](CCCNC(=N)N)C(N)=O [Dansyl-VPR-amide] (Dansyl-Val-Pro-Arg-NH2) | −1
CC(C)[C@H](NS(=O)(=O)c1cccc2c(N(C)C)cccc12)C(=O)N[C@@H](CCC(N)=O)C(=O)N[C@@H](CCCNC(=N)N)C(N)=O [Dansyl-VQR-amide] (Dansyl-Val-Gln-Arg-NH2) | 9
CC(C)[C@H](NS(=O)(=O)c1cccc2c(N(C)C)cccc12)C(=O)N[C@@H](CCCNC(=N)N)C(=O)N[C@@H](CCCNC(=N)N)C(N)=O [Dansyl-VRR-amide] (Dansyl-Val-Arg-Arg-NH2) | −6
